The target of this assay is T1, human TAS1R2-I486V (subunit alone) (Homo sapiens, UniProt Q8TE23, I486V).
T1 construct: expressed in transfected cells; host or cells: HEK293T-Gα16gust44
T1 sequence (Q8TE23 20-839 I486V): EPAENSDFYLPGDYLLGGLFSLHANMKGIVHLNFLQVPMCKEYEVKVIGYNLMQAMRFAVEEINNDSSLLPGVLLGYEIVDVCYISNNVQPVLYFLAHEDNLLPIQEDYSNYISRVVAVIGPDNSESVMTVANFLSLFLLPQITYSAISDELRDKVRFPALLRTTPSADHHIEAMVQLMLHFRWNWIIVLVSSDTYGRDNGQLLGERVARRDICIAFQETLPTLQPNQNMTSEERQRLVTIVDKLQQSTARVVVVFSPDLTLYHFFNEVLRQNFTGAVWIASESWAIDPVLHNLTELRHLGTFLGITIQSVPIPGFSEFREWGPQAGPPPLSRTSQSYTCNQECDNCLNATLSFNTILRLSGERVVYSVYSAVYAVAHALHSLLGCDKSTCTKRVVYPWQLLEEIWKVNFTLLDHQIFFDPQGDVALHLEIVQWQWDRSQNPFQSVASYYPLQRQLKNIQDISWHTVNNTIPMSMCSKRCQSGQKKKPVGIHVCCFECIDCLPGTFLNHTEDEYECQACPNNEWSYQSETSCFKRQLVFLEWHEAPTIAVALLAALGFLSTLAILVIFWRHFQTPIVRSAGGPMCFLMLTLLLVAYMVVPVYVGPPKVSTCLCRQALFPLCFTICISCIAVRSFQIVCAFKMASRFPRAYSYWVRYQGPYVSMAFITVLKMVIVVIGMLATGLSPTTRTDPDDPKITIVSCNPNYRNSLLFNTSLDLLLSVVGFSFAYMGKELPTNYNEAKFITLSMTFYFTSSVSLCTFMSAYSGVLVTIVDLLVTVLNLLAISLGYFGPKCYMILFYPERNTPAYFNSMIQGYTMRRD
In words: Calcium mobilisation assay, TAS1R2-I486V subunit alone. It counts as cell-based. An excerpt: The coding sequences for TAS1R2 and TAS1R3 were commercially synthesised, and the human codon was optimised for expression in human cells. The coding sequences of human TAS1R2 and TAS1R3 were subcloned and inserted into the mammalian expression vectors pcDNA6/myc-HisA and pcDNA4/myc-HisA (Invitrogen; Thermo Fisher Scientific; Illkirch, France) between the EcoRI and NotI restriction sites, generating the plasmids pcDNA6-TAS1R2 and pcDNA4-TAS1R3, respectively. To increase protein expression in mammalian cells, an upstream start codon was used, which was a sequence called MAX, corresponding to the QBI SP163 element also described in pcDNA4-HisMax (Invitrogen; Thermo Fisher Scientific; Illkirch, France). To measure the expression level of the receptor by immunohistochemistry, we used the FLAG sequence ([…]) in the C-terminal position, which encodes the FLAG tag epitope. […]
The HEK293T cells were kindly provided by Jay P. Slack (Givaudan Flavors Corporation; Cincinnati, OH, USA). […] The fluorescence intensity was measured for 90 s (excitation 488 nm, emission 510 nm) in an automated fluorometric FlexStation®3 Multi-Mode microplate reader (Molecular Devices; San Jose, CA, USA). […] The Ca^2+ changes were expressed as fractional changes in fluorescent light intensity: ΔF/F = (F − F0)/F0, where F was the fluorescent light intensity at each point, and F0 was the value of emitted fluorescent light prior to stimulus application. To calculate dose–response relationships, the changes in fluorescence upon stimulus application were averaged, mock-subtracted and baseline-corrected. […] The half-maximal effective concentrations (EC50 values) and maximal signal amplitudes were calculated using SigmaPlot software (version 15.0) (Systat Software; San Jose, CA, USA).
For in vitro calcium mobilisation assay performed on hTAS1R2-SNPs, hTAS1R3-SNPs and mTAS1R3-I60T, 6 to 7 concentrations were tested for each sweet compound, plus buffer alone. All concentration–receptor combinations were measured in duplicate, and each experiment was repeated at least 4 times (8 wells/concentration). […]
A general note: Calcium assays in cells follow changes in intracellular calcium, usually with a dye or a luminescent sensor.

Each structure is given as a SMILES string.

Turning to `C=C(C)[C@@H]1CC=C(/C=N/O)CC1` [Perillartine, perillartine], the EC50 was found to be 124 ± 14.1 µM and the “R1 = Variant EC50/WT EC50” value is reported as 1.4. The “Max ΔF/F0” value (maximal signal amplitude) was 0.39 ± 0.02.

By EC50 is commonly meant the concentration at which the effect is half-maximal.

The record behind these values is publication PMC11945486, “TAS1R2/TAS1R3 Single-Nucleotide Polymorphisms Affect Sweet Taste Receptor Activation by Sweeteners: The SWEET Project” (Nutrients, 2025).
